Laboratory results reported in ChEMBL document CHEMBL5365497, “Developing Novel Coumarin-Containing Azoles Antifungal Agents by the Scaffold Merging Strategy for Treating Azole-Resistant Candidiasis” (J Med Chem, 2023).
Converted amounts (≈) assume the structure as drawn.

What was measured:
Type in all cases: functional
Candida albicans [1] = test: Antifungal activity against Candida albicans CPCC400616 assessed as fungal growth inhibition by CLSI based microdilution method
Candida albicans [2] = test: Antifungal activity against Candida albicans SC5314 assessed as fungal growth inhibition by CLSI based microdilution method
Candida parapsilosis = test: Antifungal activity against Candida parapsilosis assessed as fungal growth inhibition by CLSI based microdilution method; conditions: Lodderomyces parapsilosis
Nakaseomyces glabratus = test: Antifungal activity against Candida glabrata assessed as fungal growth inhibition by CLSI based microdilution method
Pichia kudriavzevii = test: Antifungal activity against Pichia kudriavzevii assessed as fungal growth inhibition by CLSI based microdilution method
Candida tropicalis = test: Antifungal activity against Candida tropicalis assessed as fungal growth inhibition by CLSI based microdilution method
Cryptococcus neoformans = test: Antifungal activity against Cryptococcus neoformans assessed as fungal growth inhibition by CLSI based microdilution method
Candida albicans [3] = test: Antifungal activity against fluconazole-resistant Candida albicans CaR assessed as fungal growth inhibition by CLSI based microdilution method
Candida albicans [4] = test: Antifungal activity against fluconazole-resistant Candida albicans 17# assessed as fungal growth inhibition by CLSI based microdilution method
Candida albicans [5] = test: Antifungal activity against fluconazole-resistant Candida albicans 632 assessed as fungal growth inhibition by CLSI based microdilution method
Candida albicans [6] = test: Antifungal activity against fluconazole-resistant Candida albicans 904 assessed as fungal growth inhibition by CLSI based microdilution method
Candida albicans [7] = test: Antifungal activity against fluconazole-resistant Candida albicans 901 assessed as fungal growth inhibition by CLSI based microdilution method

Row | Compound | MIC (Candida albicans [1]) [µg/mL] | MIC (Candida albicans [2]) [µg/mL] | MIC (Candida parapsilosis) [µg/mL] | MIC (Nakaseomyces glabratus) [µg/mL] | MIC (Pichia kudriavzevii) [µg/mL] | MIC (Candida tropicalis) [µg/mL] | MIC (Cryptococcus neoformans) [µg/mL] | MIC (Candida albicans [3]) [µg/mL] | MIC (Candida albicans [4]) [µg/mL] | MIC (Candida albicans [5]) [µg/mL] | MIC (Candida albicans [6]) [µg/mL] | MIC (Candida albicans [7]) [µg/mL]
1 | O=c1ccc2ccccc2o1 [COUMARIN] | > 128 | > 128 | > 128 | > 128 | > 128 | > 128 | > 128 | > 128 | 128 (≈ 876 µM) | > 128 | > 128 | > 128
2 | O=c1ccc2cc(COC(Cn3cncn3)c3ccc(F)cc3F)ccc2o1 (configuration not stated) | 8 (≈ 20.9 µM) | 0.25 (≈ 0.652 µM) | 4 (≈ 10.4 µM) | 16 (≈ 41.7 µM) | 32 (≈ 83.5 µM) | 64 (≈ 167 µM) | 64 (≈ 167 µM) | – | – | – | – | –
3 | O=c1oc2ccccc2cc1COC(Cn1ccnn1)c1ccc(Cl)cc1Cl (configuration not stated) | 128 (≈ 307 µM) | 128 (≈ 307 µM) | > 128 | > 128 | 128 (≈ 307 µM) | > 128 | 32 (≈ 76.9 µM) | – | – | – | – | –
4 | O=c1ccc2cc(COC(Cn3ccnn3)c3ccc(F)cc3F)ccc2o1 (configuration not stated) | > 128 | > 128 | 128 (≈ 334 µM) | > 128 | > 128 | > 128 | > 128 | – | – | – | – | –
5 | O=c1oc2ccccc2cc1COC(Cn1cncn1)c1ccc(Cl)cc1Cl (configuration not stated) | 4 (≈ 9.61 µM) | 0.25 (≈ 0.601 µM) | 4 (≈ 9.61 µM) | 8 (≈ 19.2 µM) | 32 (≈ 76.9 µM) | 16 (≈ 38.4 µM) | 16 (≈ 38.4 µM) | – | – | – | – | –
6 | O=c1oc2ccc([N+](=O)[O-])cc2cc1COC(Cn1ccnc1)c1ccc(F)cc1F (configuration not stated) | > 128 | > 128 | 64 (≈ 150 µM) | 32 (≈ 74.9 µM) | 128 (≈ 300 µM) | 128 (≈ 300 µM) | 64 (≈ 150 µM) | – | – | – | – | –
7 | O=c1oc2ccccc2cc1COC(Cn1cncn1)c1ccc(F)cc1F (configuration not stated) | 8 (≈ 20.9 µM) | 0.25 (≈ 0.652 µM) | 2 (≈ 5.22 µM) | 8 (≈ 20.9 µM) | 16 (≈ 41.7 µM) | 64 (≈ 167 µM) | 32 (≈ 83.5 µM) | – | – | – | – | –
8 | O=c1oc2ccc(F)cc2cc1COC(Cn1ccnc1)c1ccc(Cl)cc1Cl (configuration not stated) | 0.5 (≈ 1.15 µM) | 0.25 (≈ 0.577 µM) | 0.5 (≈ 1.15 µM) | 2 (≈ 4.62 µM) | 2 (≈ 4.62 µM) | 64 (≈ 148 µM) | 0.5 (≈ 1.15 µM) | – | – | – | – | –
9 | O=c1oc2ccccc2cc1COC(Cn1ccnc1)c1ccc(F)cc1 (configuration not stated) | 0.06 (≈ 0.165 µM) | 0.03 (≈ 0.0823 µM) | < 0.25 | 1 (≈ 2.74 µM) | 1 (≈ 2.74 µM) | 0.5 (≈ 1.37 µM) | 0.125 (≈ 0.343 µM) | 0.5 (≈ 1.37 µM) | 2 (≈ 5.49 µM) | 8 (≈ 22 µM) | 4 (≈ 11 µM) | 8 (≈ 22 µM)
10 | O=c1ccc2ccc(COC(Cn3cnnn3)c3ccc(Cl)cc3Cl)cc2o1 (configuration not stated) | > 128 | > 128 | 64 (≈ 153 µM) | 64 (≈ 153 µM) | > 128 | 128 (≈ 307 µM) | 32 (≈ 76.7 µM) | – | – | – | – | –
11 | O=c1ccc2ccc(COC(Cn3ccnn3)c3ccc(F)cc3F)cc2o1 (configuration not stated) | > 128 | > 128 | > 128 | 128 (≈ 334 µM) | > 128 | 4 (≈ 10.4 µM) | > 128 | – | – | – | – | –
12 | CCC(C)n1ncn(-c2ccc(N3CCN(c4ccc(OCC5COC(Cn6cncn6)(c6ccc(Cl)cc6Cl)O5)cc4)CC3)cc2)c1=O (configuration not stated) [ITRACONAZOLE] | – | – | – | – | – | – | – | 64 (≈ 90.7 µM) | 128 (≈ 181 µM) | 64 (≈ 90.7 µM) | > 128 | > 128
13 | O=c1oc2ccc(F)cc2cc1COC(Cn1ccnc1)c1ccc(F)cc1F (configuration not stated) | 1 (≈ 2.5 µM) | 1 (≈ 2.5 µM) | 0.5 (≈ 1.25 µM) | 2 (≈ 5 µM) | 4 (≈ 9.99 µM) | 8 (≈ 20 µM) | 0.5 (≈ 1.25 µM) | – | – | – | – | –
14 | O=c1oc2c(Cl)cc(Cl)cc2cc1COC(Cn1ccnc1)c1ccc(F)cc1 (configuration not stated) | > 128 | > 128 | > 128 | > 128 | > 128 | > 128 | 128 (≈ 295 µM) | – | – | – | – | –
15 | O=c1oc2ccc(Cl)cc2cc1COC(Cn1ccnc1)c1ccc(F)cc1F (configuration not stated) | 32 (≈ 76.8 µM) | 0.25 (≈ 0.6 µM) | 16 (≈ 38.4 µM) | 128 (≈ 307 µM) | 128 (≈ 307 µM) | 128 (≈ 307 µM) | 16 (≈ 38.4 µM) | – | – | – | – | –
16 | COc1cccc2cc(COC(Cn3ccnc3)c3ccc(F)cc3F)c(=O)oc12 (configuration not stated) | 0.25 (≈ 0.606 µM) | 0.25 (≈ 0.606 µM) | 0.06 (≈ 0.145 µM) | 4 (≈ 9.7 µM) | 2 (≈ 4.85 µM) | 32 (≈ 77.6 µM) | 0.06 (≈ 0.145 µM) | – | – | – | – | –
17 | O=c1oc2ccccc2cc1COC(Cn1ccnn1)c1ccc(F)cc1F (configuration not stated) | > 128 | 128 (≈ 334 µM) | > 128 | > 128 | 64 (≈ 167 µM) | > 128 | 64 (≈ 167 µM) | – | – | – | – | –
